From patent US20240279207A1, “SUBSTITUTED ACYL SULFONAMIDES FOR TREATING CANCER” (The Broad Institute, Inc., priority 2020, published 2024)

How the values were obtained:
[1] = biological target: T1, Recombinant human His-tagged Kat6a protein (amino acids 194-810) (Homo sapiens, UniProt Q92794); assay: Kat6a activity assay (TR-FRET, acetylation of Histone-H4-derived peptide); format: biochemical; conditions: 60 mins at 22° C., 220 nM H4 peptide, 600 nM Acetyl Coenzyme A, read-out: KAT6A - DPF/HAT domain IC50 [mol/l] (arithmetic mean)
T1 construct: Kat6a protein (amino acids 194-810); His
T1 sequence (Q92794 194-810): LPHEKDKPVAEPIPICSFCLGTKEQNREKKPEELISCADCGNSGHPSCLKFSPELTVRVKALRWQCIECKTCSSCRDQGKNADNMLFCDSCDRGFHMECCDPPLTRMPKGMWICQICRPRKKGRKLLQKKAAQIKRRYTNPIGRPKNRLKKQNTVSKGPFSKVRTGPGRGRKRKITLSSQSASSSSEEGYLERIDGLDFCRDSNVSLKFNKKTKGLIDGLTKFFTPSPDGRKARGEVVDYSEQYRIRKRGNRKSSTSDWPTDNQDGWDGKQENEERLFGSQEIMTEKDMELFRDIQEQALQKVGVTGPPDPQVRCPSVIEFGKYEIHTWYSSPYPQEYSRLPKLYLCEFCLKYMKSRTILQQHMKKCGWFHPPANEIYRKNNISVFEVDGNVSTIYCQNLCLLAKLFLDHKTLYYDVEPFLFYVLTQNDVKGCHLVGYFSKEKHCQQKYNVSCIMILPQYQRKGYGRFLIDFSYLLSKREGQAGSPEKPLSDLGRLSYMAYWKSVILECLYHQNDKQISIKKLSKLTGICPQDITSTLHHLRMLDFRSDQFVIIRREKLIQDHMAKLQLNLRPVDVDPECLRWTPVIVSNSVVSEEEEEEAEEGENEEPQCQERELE

[2] = system: ESR1 transcription in MVLN cells; assay: MVLN reporter assay: repression of ESR1 transcription (luciferase signal); format: cell-based; conditions: Homo sapiens, MVLN, 24 h, luciferase signal after 24 h, read-out: MVLN reporter assay, IC50 [M] (arithmetic mean)
How it was run: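 To control for cell loss, Alamar Blue (2 h, 530/590 nm) precedes the 24 h luciferase measurement. The reporter is an ERE from the Xenopus vitellogenin A2 gene driving luciferase, stably transfected into ER-expressing MVLN cells; duplicate samples.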

SMILES | IC50 [1] [nM] | IC50 [2] [M]
CC(C)N(C)c1cc(F)cc(F)c1S(=O)(=O)NC(=O)c1cc2c(F)cc(N3CC(F)C3)cc2o1 [Example 165, N-{2,4-difluoro-6-[methyl(propan-2-yl)amino]benzene-1-sulfonyl}-4-fluoro-6-(3-fluoroazetidin-1-yl)-1-benzofuran-2-carboxamide] | 318 | 8.64e-07
CC(C)N(C)c1ccc(S(=O)(=O)NC(=O)c2cc3c(F)cc(N4CC(F)C4)cc3o2)c(F)c1F [Example 166, N-{2,3-difluoro-4-[methyl(propan-2-yl)amino]benzene-1-sulfonyl}-4-fluoro-6-(3-fluoroazetidin-1-yl)-1-benzofuran-2-carboxamide] | 362 | 7.22e-06
CCS(=O)(=O)c1nc2ccccn2c1S(=O)(=O)NC(=O)c1cc2c(F)cc(N3CCC3)cc2o1 [Example 167, 6-(Azetidin-1-yl)-N-[2-(ethanesulfonyl)imidazo[1,2-a]pyridine-3-sulfonyl]-4-fluoro-1-benzofuran-2-carboxamide] | 517 | > 2e-05
O=C(NS(=O)(=O)c1cnc2c(Cl)cc(Cl)cn12)c1cc2c(F)cc(N3CCC3)cc2o1 [Example 168, 6-(Azetidin-1-yl)-N-(6,8-dichloroimidazo[1,2-a]pyridine-3-sulfonyl)-4-fluoro-1-benzofuran-2-carboxamide] | 671 | > 2e-05
O=C(NS(=O)(=O)c1cccc2c1OCCO2)c1cc2c(F)cc(N3CCC3)cc2o1 [Example 172, 6-(Azetidin-1-yl)-N-(2,3-dihydro-1,4-benzodioxine-5-sulfonyl)-4-fluoro-1-benzofuran-2-carboxamide] | 34 | 1.35e-07
Cc1ccc2cccnc2c1S(=O)(=O)NC(=O)c1cc2c(F)cc(N3CCC3)cc2o1 [Example 173, 6-(Azetidin-1-yl)-4-fluoro-N-(7-methylquinoline-8-sulfonyl)-1-benzofuran-2-carboxamide] | 65.7 | 1.58e-07
O=C(NS(=O)(=O)c1c[nH]c2ccccc12)c1cc2c(F)cc(N3CCC3)cc2o1 [Example 176, 6-(Azetidin-1-yl)-4-fluoro-N-(1H-indole-3-sulfonyl)-1-benzofuran-2-carboxamide] | 26.8 | 1.88e-07
O=C(NS(=O)(=O)c1cc(Br)cc2c1OCC2)c1cc2c(F)cc(N3CCC3)cc2o1 [Example 177, 6-(Azetidin-1-yl)-N-(5-bromo-2,3-dihydro-1-benzofuran-7-sulfonyl)-4-fluoro-1-benzofuran-2-carboxamide] | 21.4 | 2.24e-07
O=C(NS(=O)(=O)c1csc2ccccc12)c1cc2c(F)cc(N3CCC3)cc2o1 [Example 178, 6-(Azetidin-1-yl)-N-(1-benzothiophene-3-sulfonyl)-4-fluoro-1-benzofuran-2-carboxamide] | 35.3 | 3.16e-07
Cn1nc2cccc(S(=O)(=O)NC(=O)c3cc4c(F)cc(N5CCC5)cc4o3)c2n1 [Example 179, 6-(Azetidin-1-yl)-4-fluoro-N-(2-methyl-2H-benzotriazole-4-sulfonyl)-1-benzofuran-2-carboxamide] | 66.6 | 5.53e-07
O=C(NS(=O)(=O)c1cccc2nsnc12)c1cc2c(F)cc(N3CCC3)cc2o1 [Example 181, 6-(Azetidin-1-yl)-N-(2,1,3-benzothiadiazole-4-sulfonyl)-4-fluoro-1-benzofuran-2-carboxamide] | 89.5 | 6.47e-07
O=C(NS(=O)(=O)c1cnn2c1OCCC2)c1cc2c(F)cc(N3CCC3)cc2o1 [Example 184, 6-(Azetidin-1-yl)-N-(6,7-dihydro-5H-pyrazolo[5,1-b][1,3]oxazine-3-sulfonyl)-4-fluoro-1-benzofuran-2-carboxamide] | 294 | 5.21e-06
O=C(NS(=O)(=O)c1cnc2ccccn12)c1cc2c(F)cc(N3CCC3)cc2o1 [Example 186, 6-(Azetidin-1-yl)-4-fluoro-N-(imidazo[1,2-a]pyridine-3-sulfonyl)-1-benzofuran-2-carboxamide] | 1630 | 1.7e-05
O=C(NS(=O)(=O)c1cccc2c(N3CCOCC3)cccc12)c1cc2c(F)cc(N3CCC3)cc2o1 [Example 188, 6-(Azetidin-1-yl)-4-fluoro-N-[5-(morpholin-4-yl)naphthalene-1-sulfonyl]-1-benzofuran-2-carboxamide] | 132 | 2.55e-06
Cc1cc(C(C)(C)C)cc(S(=O)(=O)NC(=O)c2cc3c(F)cc(N4CCC4)cc3o2)c1C [Example 189, 6-(Azetidin-1-yl)-N-(5-tert-butyl-2,3-dimethylbenzene-1-sulfonyl)-4-fluoro-1-benzofuran-2-carboxamide] | 8.59 | 1.3e-07
CC1(C)COc2ccc(S(=O)(=O)NC(=O)c3cc4c(F)cc(N5CCC5)cc4o3)cc21 [Example 190, 6-(Azetidin-1-yl)-N-(3,3-dimethyl-2,3-dihydro-1-benzofuran-5-sulfonyl)-4-fluoro-1-benzofuran-2-carboxamide] | 72.9 | 1.93e-07

The next lines start with the values.

IC50 [1] [nM] | IC50 [2] [M] | SMILES
10.5 | 1.33e-07 | CC(C)Oc1ccc(Br)cc1S(=O)(=O)NC(=O)c1cc2c(F)cc(N3CCC3)cc2o1 [Example 170, 6-(azetidin-1-yl)-N-{5-bromo-2-[(propan-2-yl)oxy]benzene-1-sulfonyl}-4-fluoro-1-benzofuran-2-carboxamide]
26.5 | 1.65e-07 | COc1cc(Br)ccc1S(=O)(=O)NC(=O)c1cc2c(F)cc(N3CCC3)cc2o1 [Example 174, 6-(Azetidin-1-yl)-N-(4-bromo-2-methoxybenzene-1-sulfonyl)-4-fluoro-1-benzofuran-2-carboxamide]
44.9 | 1.65e-07 | Cc1cc(S(=O)(=O)NC(=O)c2cc3c(F)cc(N4CCC4)cc3o2)c2ncccc2c1 [Example 175, 6-(Azetidin-1-yl)-4-fluoro-N-(6-methylquinoline-8-sulfonyl)-1-benzofuran-2-carboxamide]
35.9 | 6.28e-07 | COc1ccc(S(=O)(=O)NC(=O)c2cc3c(F)cc(N4CCC4)cc3o2)c2c1CCCC2 [Example 180, 6-(Azetidin-1-yl)-4-fluoro-N-(4-methoxy-5,6,7,8-tetrahydronaphthalene-1-sulfonyl)-1-benzofuran-2-carboxamide]
55.1 | 8.48e-07 | COc1ccc2snnc2c1S(=O)(=O)NC(=O)c1cc2c(F)cc(N3CCC3)cc2o1 [Example 182, 6-(Azetidin-1-yl)-4-fluoro-N-(5-methoxy-1,2,3-benzothiadiazole-4-sulfonyl)-1-benzofuran-2-carboxamide]
82.8 | 9.24e-07 | COc1c(S(=O)(=O)NC(=O)c2cc3c(F)cc(N4CCC4)cc3o2)ccc(Cl)c1Cl [Example 183, 6-(Azetidin-1-yl)-N-(3,4-dichloro-2-methoxybenzene-1-sulfonyl)-4-fluoro-1-benzofuran-2-carboxamide]
195 | 9.61e-06 | CC(=O)Nc1ccc(S(=O)(=O)NC(=O)c2cc3c(F)cc(N4CCC4)cc3o2)c2ccccc12 [Example 185, N-(4-Aacetamidonaphthalene-1-sulfonyl)-6-(azetidin-1-yl)-4-fluoro-1-benzofuran-2-carboxamide]
1530 | 1.85e-05 | O=C(NS(=O)(=O)c1cccc2cnccc12)c1cc2c(F)cc(N3CCC3)cc2o1 [Example 187, 6-(Azetidin-1-yl)-4-fluoro-N-(isoquinoline-5-sulfonyl)-1-benzofuran-2-carboxamide]
301 | 4.99e-06 | Cc1ccc(S(=O)(=O)NC(=O)c2cc3c(F)cc(N4CCC4)cc3o2)c2ccncc12 [Example 191, 6-(Azetidin-1-yl)-4-fluoro-N-(8-methylisoquinoline-5-sulfonyl)-1-benzofuran-2-carboxamide]
2000 | > 2e-05 | COC(=O)Nc1cccc2c(S(=O)(=O)NC(=O)c3cc4c(F)cc(N5CCC5)cc4o3)cccc12 [Example 192, Methyl (5-{[6-(azetidin-1-yl)-4-fluoro-1-benzofuran-2-carbonyl]sulfamoyl}naphthalen-1-yl)carbamate]
4820 | > 2e-05 | Cc1cncc2cccc(S(=O)(=O)NC(=O)c3cc4c(F)cc(N5CCC5)cc4o3)c12 [Example 193, 6-(Azetidin-1-yl)-4-fluoro-N-(4-methylisoquinoline-5-sulfonyl)-1-benzofuran-2-carboxamide]
4.19 | 7.76e-08 | COc1ccc(-c2c(C)noc2C)cc1S(=O)(=O)NC(=O)c1cc2c(F)cc(N3CCC3)cc2o1 [Example 194, 6-(Azetidin-1-yl)-N-[5-(3,5-dimethyl-1,2-oxazol-4-yl)-2-methoxybenzene-1-sulfonyl]-4-fluoro-1-benzofuran-2-carboxamide]
11.6 | 2.95e-07 | COc1ccc(-c2cccc(F)c2)cc1S(=O)(=O)NC(=O)c1cc2c(F)cc(N3CCC3)cc2o1 [Example 198, 6-(Azetidin-1-yl)-4-fluoro-N-(3′-fluoro-4-methoxy[1,1′-biphenyl]-3-sulfonyl)-1-benzofuran-2-carboxamide]
32.3 | 5.49e-07 | COc1ccc(-c2cnn(C)c2)cc1S(=O)(=O)NC(=O)c1cc2c(F)cc(N3CCC3)cc2o1 [Example 199, 6-(Azetidin-1-yl)-4-fluoro-N-[2-methoxy-5-(1-methyl-1H-pyrazol-4-yl)benzene-1-sulfonyl]-1-benzofuran-2-carboxamide]
34.1 | 5.5e-07 | COc1ccc(-c2cccnc2)cc1S(=O)(=O)NC(=O)c1cc2c(F)cc(N3CCC3)cc2o1 [Example 200, 6-(Azetidin-1-yl)-4-fluoro-N-[2-methoxy-5-(pyridin-3-yl)benzene-1-sulfonyl]-1-benzofuran-2-carboxamide]
